One series concerns THP-1. The series is described as follows: Inhibition of LPS-stimulated TNFalpha production in THP1 cells. Type of series: functional, cell-based. As to conditions: Homo sapiens.
The target in series [1] is Mitogen-activated protein kinase 9 (Homo sapiens, UniProt P45984). The series is described as follows: Inhibition of Jnk2alpha2.
A short description of series [2]: Aqueous solubility at pH 7.4. Type of series: physicochemical.

In brackets after ≈: the same amount, converted by molar mass. A value given as a limit tells only on which side of the number the result lay.

Mitogen-activated protein kinase 9, sequence (P45984 whole entry): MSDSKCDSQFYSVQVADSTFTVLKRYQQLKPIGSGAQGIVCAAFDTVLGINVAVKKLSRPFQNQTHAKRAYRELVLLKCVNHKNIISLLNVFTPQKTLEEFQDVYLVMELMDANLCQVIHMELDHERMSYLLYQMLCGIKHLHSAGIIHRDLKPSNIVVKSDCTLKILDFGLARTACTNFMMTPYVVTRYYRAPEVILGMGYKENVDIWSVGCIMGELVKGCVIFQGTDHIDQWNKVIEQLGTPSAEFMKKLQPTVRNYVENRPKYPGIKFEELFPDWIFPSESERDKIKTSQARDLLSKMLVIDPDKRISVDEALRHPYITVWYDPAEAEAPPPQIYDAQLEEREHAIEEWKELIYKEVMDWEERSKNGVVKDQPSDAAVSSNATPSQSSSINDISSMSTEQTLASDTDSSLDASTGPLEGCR

What is called EC50 is the concentration that produces a half-maximal response. Low readings indicate higher potency in that assay, high ones lower potency in that assay. The term IC50 denotes the concentration that gives 50% inhibition. As for `O=c1[nH]c2cc(Nc3ccc(F)cc3F)ccc2n1CC1CCCCC1`, in the series on THP-1, the 50% effective concentration (EC50) was 0.046 µM. Besides, half-maximal inhibition in series [1] (IC50) was put at 5.5 µM. For `O=c1[nH]c2cc(Nc3cccc(F)c3)ccc2n1CC1CCCCC1`, in the series on THP-1, a half-maximal response (EC50) required 0.19 µM.

In the series on THP-1, `O=c1[nH]c2cc(Nc3cccc(C(F)(F)F)c3)ccc2n1CC1CCCCC1` had an EC50 of 2.3 µM.

In the case of `Cn1c(=O)[nH]c2cc(C(=O)c3ccccc3)ccc21`, the concentration for a half-maximal effect (EC50) in the series with THP-1 was more than 5 µM.

As usually defined, the solubility is the concentration that dissolves in the medium under given conditions. On to `CN1CCN(c2cc3c(cc2Nc2ccccc2)[nH]c(=O)n3CC2CCCCC2)CC1`, for which the 50% effective concentration (EC50) in the series with THP-1 is 0.15 µM. Moreover, in series [2], the solubility was found to be 5.7 µM (≈ 2.39 µg/mL). The molecule `O=c1[nH]c2cc(Nc3ccccc3)ccc2n1Cc1ccccc1` showed a concentration giving a half-maximal response (EC50) in the series on THP-1 of 0.32 µM.

Molecule `Cc1ccccc1Nc1ccc2c(c1)[nH]c(=O)n2CC1CCCCC1` showed an EC50 in the series with THP-1 of 0.064 µM. As to `O=c1[nH]c2cc(Oc3ccccc3)ccc2n1CC1CCCCC1`, a half-maximal effect in the series on THP-1 (EC50) was put at 0.25 µM. Molecule `O=c1[nH]c2cc(Nc3ccccc3)ccc2n1CC1CCCCC1` showed a concentration giving a half-maximal response (EC50) in the series with THP-1 of 0.27 µM. Also, the concentration in solution in series [2] (solubility) was 0.2 µM (≈ 0.0643 µg/mL). For `O=c1[nH]c2cc(Nc3ccccc3F)ccc2n1CC1CCCCC1`, a half-maximal effect in the series on THP-1 (EC50) was put at 0.066 µM. In turn, `O=C(c1ccccc1)c1ccc2[nH]c(=O)[nH]c2c1` had a concentration giving a half-maximal response (EC50) in the series on THP-1 of more than 5 µM. In the case of `O=c1[nH]c2cc(Nc3ccccc3)c(N3CCNCC3)cc2n1CC1CCCCC1`, in the series with THP-1, the EC50 came to 0.15 µM. In the series on THP-1, `O=c1[nH]c2cc(Nc3ccc(F)c(F)c3)ccc2n1CC1CCCCC1` showed an EC50 of 0.42 µM. As for `CC(C)(C)n1c(=O)[nH]c2cc(Nc3ccccc3)ccc21`, the EC50 in the series with THP-1 worked out at 0.074 µM.

`O=c1[nH]c2cc(Nc3cc(Cl)cc(Cl)c3)ccc2n1CC1CCCCC1` had a concentration giving a half-maximal response (EC50) in the series with THP-1 of more than 10 µM. In the series with THP-1, `O=C(c1ccccc1)c1ccc2c(c1)[nH]c(=O)n2CC1CCCCC1` showed a concentration giving a half-maximal response (EC50) of 0.88 µM. As for `Cc1ccccc1Nc1cc2[nH]c(=O)n(CC3CCCCC3)c2cc1N1CCN(C)CC1`, a half-maximal effect with THP-1 (EC50) was put at 0.18 µM. In the series with THP-1, `O=C(c1ccccc1)c1ccc2c(c1)[nH]c(=O)n2Cc1ccccc1` had a concentration giving a half-maximal response (EC50) of 1 µM. The same measure, in the same setting: the value for `N=C(N)c1ccc(Cn2c(=O)[nH]c3cc(C(=O)c4ccccc4)ccc32)cc1` was more than 10 µM; that for `O=c1[nH]c2cc(Nc3ccccc3)ccc2n1C1CCNC1` (configuration not stated) was 1.1 µM. In turn, `O=c1[nH]c2cc(Nc3ccccc3)ccc2n1C1CCCC1` came in with a 50% effective concentration (EC50) in the series with THP-1 of 0.15 µM. In the case of `O=c1[nH]c2cc(Nc3ccc(F)cc3)ccc2n1CC1CCCCC1`, a half-maximal effect in the series on THP-1 (EC50) was put at 0.074 µM.

Regarding `O=c1[nH]c2cc(Nc3ccccc3)ccc2n1Cc1c(F)cccc1F`, in the series on THP-1, the midpoint of the response, the EC50, lay at 0.22 µM. With `CC(C)(CN)n1c(=O)[nH]c2cc(Nc3ccccc3)ccc21`, the EC50 in the series on THP-1 was found to be 3.4 µM. This EC50 lies about 15-fold higher than the previous one.

The values are drawn from ChEMBL document CHEMBL1146166, “Discovery and design of benzimidazolone based inhibitors of p38 MAP kinase” (Bioorg Med Chem Lett, 2006).
